The values that follow come from ChEMBL document CHEMBL4311944, “Discovery of 3-Oxabicyclo[4.1.0]heptane, a Non-nitrogen Containing Morpholine Isostere, and Its Application in Novel Inhibitors of the PI3K-AKT-mTOR Pathway” (J Med Chem, 2019).

Series [1] can be described thus: Lipophilicity, logP of the compound by reversed phase column chromatography. The class given is physicochemical.
A short description of series [2]: Inhibition of PI3K/AKT/mTOR in human lung fibroblasts assessed as reduction in AKT phosphorylation at serine473 residue preincubated for 1 hr followed by PDGF-BB stimulation and measured after 10 mins by electrochemiluminescence method.
The nature of series [3]: Inhibition of ligand binding to mTORC1/mTORC2 in human HuT78 cells after 2 hrs by kinobead competition binding assay. The class given is cell-based.
For series [4], the target named is T1, Phosphatidylinositol 4,5-bisphosphate 3-kinase catalytic subunit delta isoform (Homo sapiens, UniProt O00329).
T1 sequence (O00329 whole entry): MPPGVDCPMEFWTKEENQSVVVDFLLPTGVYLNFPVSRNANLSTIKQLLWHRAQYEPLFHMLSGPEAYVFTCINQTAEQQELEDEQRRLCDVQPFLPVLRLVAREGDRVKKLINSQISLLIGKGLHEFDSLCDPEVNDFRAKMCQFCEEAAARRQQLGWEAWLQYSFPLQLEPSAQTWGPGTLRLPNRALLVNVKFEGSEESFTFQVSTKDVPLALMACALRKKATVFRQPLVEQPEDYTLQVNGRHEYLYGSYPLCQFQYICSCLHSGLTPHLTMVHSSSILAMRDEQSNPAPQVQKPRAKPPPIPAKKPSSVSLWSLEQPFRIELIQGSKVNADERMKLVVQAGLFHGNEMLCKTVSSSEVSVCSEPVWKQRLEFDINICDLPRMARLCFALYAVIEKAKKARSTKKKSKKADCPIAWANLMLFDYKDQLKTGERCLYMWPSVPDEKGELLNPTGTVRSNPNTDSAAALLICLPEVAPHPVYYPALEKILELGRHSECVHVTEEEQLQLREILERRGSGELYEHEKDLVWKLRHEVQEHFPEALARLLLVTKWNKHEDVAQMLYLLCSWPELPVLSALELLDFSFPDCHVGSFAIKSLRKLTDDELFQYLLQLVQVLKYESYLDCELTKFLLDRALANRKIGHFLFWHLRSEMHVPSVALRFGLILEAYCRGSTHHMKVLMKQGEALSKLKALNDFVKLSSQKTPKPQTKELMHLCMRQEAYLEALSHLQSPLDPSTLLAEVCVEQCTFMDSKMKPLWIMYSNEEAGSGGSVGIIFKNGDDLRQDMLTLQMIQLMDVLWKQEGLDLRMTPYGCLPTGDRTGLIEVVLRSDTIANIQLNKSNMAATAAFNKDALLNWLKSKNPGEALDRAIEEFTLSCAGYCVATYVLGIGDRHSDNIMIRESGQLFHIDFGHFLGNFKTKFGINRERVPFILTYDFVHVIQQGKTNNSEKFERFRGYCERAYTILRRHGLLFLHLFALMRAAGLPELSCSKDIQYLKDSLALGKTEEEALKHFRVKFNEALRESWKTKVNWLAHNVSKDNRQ
Nature of the series: Inhibition of PI3Kdelta (unknown origin) using PIP2 as substrate preincubated for 15 mins followed by substrate addition and measured after 1 hr by HTRF assay. (TR-FRET usually uses a lanthanide donor and a delayed reading to cut background.)

A short description of series [5]: Kinetic solubility of the compound in pH 7.4 phosphate buffered saline measured after 1 hr. It is filed as physicochemical. Particulars: read-out: Kinetic_solubility.
In series [6] the target is Phosphatidylinositol 4,5-bisphosphate 3-kinase catalytic subunit alpha isoform (Homo sapiens, UniProt P42336).
Description: Inhibition of PI3Kalpha (unknown origin) using PIP2 as substrate preincubated for 15 mins followed by substrate addition and measured after 1 hr by HTRF assay

In brackets after ≈: the same amount, converted by molar mass.

Phosphatidylinositol 4,5-bisphosphate 3-kinase catalytic subunit alpha isoform, sequence (P42336 whole entry, canonical isoform): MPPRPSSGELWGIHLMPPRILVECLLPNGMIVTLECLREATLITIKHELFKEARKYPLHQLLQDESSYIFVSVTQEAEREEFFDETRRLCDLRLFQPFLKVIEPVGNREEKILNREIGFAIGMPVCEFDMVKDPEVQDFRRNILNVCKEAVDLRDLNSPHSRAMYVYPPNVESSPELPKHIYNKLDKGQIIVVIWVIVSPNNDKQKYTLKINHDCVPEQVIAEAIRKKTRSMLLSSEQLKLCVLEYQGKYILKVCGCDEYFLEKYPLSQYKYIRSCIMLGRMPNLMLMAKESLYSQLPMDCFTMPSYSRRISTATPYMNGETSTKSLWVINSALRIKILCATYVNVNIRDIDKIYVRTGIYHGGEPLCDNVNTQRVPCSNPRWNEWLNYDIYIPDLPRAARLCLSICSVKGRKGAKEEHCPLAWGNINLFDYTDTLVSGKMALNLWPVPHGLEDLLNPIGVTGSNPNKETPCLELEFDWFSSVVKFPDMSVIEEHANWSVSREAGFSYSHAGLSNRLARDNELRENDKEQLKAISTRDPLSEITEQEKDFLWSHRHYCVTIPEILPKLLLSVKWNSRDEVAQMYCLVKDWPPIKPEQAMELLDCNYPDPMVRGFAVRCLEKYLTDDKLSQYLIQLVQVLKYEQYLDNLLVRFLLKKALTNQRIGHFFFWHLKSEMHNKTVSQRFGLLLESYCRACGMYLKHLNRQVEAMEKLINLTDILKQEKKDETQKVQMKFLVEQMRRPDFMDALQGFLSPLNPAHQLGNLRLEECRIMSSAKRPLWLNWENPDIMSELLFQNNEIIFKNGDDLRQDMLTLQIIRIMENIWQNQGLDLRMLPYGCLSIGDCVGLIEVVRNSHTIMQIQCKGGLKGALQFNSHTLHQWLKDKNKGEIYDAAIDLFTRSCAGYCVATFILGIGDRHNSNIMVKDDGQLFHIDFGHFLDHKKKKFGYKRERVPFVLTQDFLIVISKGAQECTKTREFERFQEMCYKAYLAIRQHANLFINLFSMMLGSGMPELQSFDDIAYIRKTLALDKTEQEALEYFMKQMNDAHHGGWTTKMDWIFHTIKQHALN

`CCNC(=O)Nc1ccc(-c2nc(CS(C)(=O)=O)cc(N3CCOCC3)n2)cc1`: in series [1], the logP (commonly a log measure of how a compound divides between an organic and an aqueous phase) is 2.7. Moreover, the IC50 – broadly, the concentration needed to halve the response being measured – in series [2] was 1.26 µM. Further, the pIC50 (in general, the negative decadic logarithm of the IC50, by convention in mol/L) in series [3] is 7.3.
For the compound `C[C@H]1COCCN1c1cc(CS(C)(=O)=O)nc(-c2cccc(O)c2)n1`, the values for the IC50 in series [4], in series [2] and in series [6] were 1 µM, 2.51 µM and 1 µM, respectively. This compound registered a logP in series [1] of 3.3. Moreover, the solubility kinetic at 1 h in series [5] is 113 µg/mL (≈ 311 µM). The compound also displayed a pIC50 in series [3] of 6.7.
As for `C[C@H]1COCCN1c1ccnc(-c2cccc(O)c2)n1`, the IC50 in series [4] was 1 µM; in series [2], 3.98 µM; in series [6] it was 1.58 µM. Besides, in series [1], the logP was 3.3. The solubility kinetic at 1 h in series [5] was determined as 119 µg/mL (≈ 439 µM). The pIC50 in series [3] was 5.7.
With `CS(=O)(=O)Cc1cc([C@@]23CCOC[C@@H]2C3)nc(-c2cccc(O)c2)n1`, the IC50 in series [4] is 3.98 µM; in series [2], 5.01 µM; in series [6], 7.94 µM. Further, the logP in series [1] stood at 3.7. In series [5], the solubility kinetic at 1 h turned out to be 145 µg/mL (≈ 402 µM). Moreover, the pIC50 in series [3] is listed as 5.9.
`Oc1cccc(-c2nccc(C3CCOCC3)n2)c1`: the values for the IC50 in series [4], in series [2] and in series [6] were 7.94 µM, 20 µM and 15.8 µM, respectively. The same compound showed a logP in series [1] of 3.3. For the same compound, the solubility kinetic at 1 h in series [5] came out at 100 µg/mL (≈ 390 µM). In series [3], this compound returned a pIC50 of 4.5.
Consider `CCNC(=O)Nc1ccc(-c2nccc(C34CCOCC3C4)n2)cc1` (stereo unspecified), for which the IC50 in series [4] is 5.01 µM; in series [2], 3.16 µM; in series [6] it was 12.6 µM. For the same compound, in series [1], the logP turned out to be 4. Besides, the solubility kinetic at 1 h in series [5] is 111 µg/mL (≈ 328 µM). Further, the pIC50 in series [3] came to 5.8.
Regarding `CCNC(=O)Nc1ccc(-c2nccc(N3CCOCC3)n2)cc1`, the IC50 in series [4] is 10 µM; in series [2], 3.98 µM; in series [6], 12.6 µM. For the same compound, in series [1], the logP is 2.7. Besides, the solubility kinetic at 1 h in series [5] came out at 109 µg/mL (≈ 333 µM). In series [3], this compound had a negative logarithm of the IC50 (pIC50) of 6.5.
As for `Oc1cccc(-c2nccc(C34CCOCC3C4)n2)c1` (stereo unspecified), the IC50 is 3.98 µM in series [4], 7.94 µM in series [2] and 6.31 µM in series [6]. The compound also yielded a logP in series [1] of 4.1. Further, in series [5], the solubility kinetic at 1 h was determined as 102 µg/mL (≈ 380 µM). Further, in series [3], the pIC50 was 4.8.
As for `Oc1cccc(-c2nccc(N3CCOCC3)n2)c1`, the half-maximal inhibitory concentration (IC50) in series [4] is 0.251 µM; in series [2], 2 µM; in series [6] it was 0.501 µM. The compound also gave a logP in series [1] of 2.7. Moreover, the solubility kinetic at 1 h in series [5] is 107 µg/mL (≈ 416 µM). In series [3], the pIC50 came to 5.9.
On to `CCNC(=O)Nc1ccc(-c2nccc(C3=CCOCC3)n2)cc1`, for which the values for the IC50 in series [4], in series [2] and in series [6] were 15.8 µM, 3.98 µM and 20 µM, respectively. In series [1], the logP turned out to be 3.6. In addition, in series [5], the solubility kinetic at 1 h stood at 24 µg/mL (≈ 74 µM). The pIC50 in series [3] turned out to be 6.
`Oc1cccc(-c2nccc(C3=CCOCC3)n2)c1`: the figures for the 50% inhibitory concentration (IC50) in series [4], in series [2] and in series [6] were 1.26 µM, 3.16 µM and 3.16 µM, respectively. This compound also gave a logP in series [1] of 3.6. Further, the solubility kinetic at 1 h in series [5] is 113 µg/mL (≈ 444 µM). The same compound registered a pIC50 in series [3] of 5.7.
As for `Oc1cccc(-c2nccc([C@]34CCOC[C@H]3C4)n2)c1`, the IC50 in series [4] was 1.26 µM; in series [2] it was 7.94 µM; in series [6] it was 2.51 µM. Besides, the logP in series [1] worked out at 4. For the same compound, the solubility kinetic at 1 h in series [5] stood at 141 µg/mL (≈ 525 µM). Also, in series [3], the pIC50 stood at 5.1.
On to `Oc1cccc(-c2nccc([C@@]34CCOC[C@@H]3C4)n2)c1`, for which the IC50 in series [4] was 3.16 µM; in series [2], 10 µM; in series [6] it was 6.31 µM. Further, the logP in series [1] was determined as 4. Besides, the solubility kinetic at 1 h in series [5] was found to be 123 µg/mL (≈ 458 µM). This compound gave a pIC50 in series [3] below 3.
For the compound `CS(=O)(=O)Cc1cc(C2=CCOCC2)nc(-c2cccc(O)c2)n1`, the values for the IC50 in series [4], in series [2] and in series [6] were 1.58 µM, 0.794 µM and 6.31 µM, respectively. The compound also gave a logP in series [1] of 3.3. The solubility kinetic at 1 h in series [5] was found to be 27 µg/mL (≈ 77.9 µM). In series [3], the negative-log IC50 (pIC50) was found to be 6.4.
